Measurements: patent US20250019385A1, “SPIROCYCLIC ANNULATED 2-AMINO-3-CYANO THIOPHENES AND DERIVATIVES FOR THE TREATMENT OF CANCER” (Boehringer Ingelheim International GmbH, priority 2023, published 2025)
Values after ≈ are worked out from the molar mass of the structure shown. Like-named read-outs stand apart in the source and are kept apart here.

Columns and labels:
[1] = Plasma protein binding assay (PPB), equilibrium dialysis; type: in vitro ADME; conditions: bovine, 10% FCS in PBS, read-out: PPB 10% FCS (% fu)
Procedure, shortened: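 Compound at 1-10 μmol/L in 10% FCS in PBS was dialysed against PBS (with or without dextran) across a 5-10 kg/mol cut-off membrane for 3-5 h at 37° C. Both chambers were protein-precipitated and compound was quantified by LC-MS. The unbound fraction was calculated from the serum-side and buffer-side concentrations.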

[2] = system: SK-CO-1 cells; assay: SK-CO-1 CTG proliferation assay (120 h) (CRC, G12V); type: cell-based; conditions: Homo sapiens
Procedure, shortened: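 Cells seeded overnight in EMEM with 10% FCS, then given logarithmic dose series in duplicate for 120 h at 37° C. CellTiter-Glo luminescence expressed as percent of DMSO controls, with a T0 read at dosing; IC50 by four-parameter non-linear regression.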

[3] = Solubility measurement (DMSO solution precipitation method); type: physicochemical; conditions: aqueous buffer, kinetic from dmso stock
Procedure, shortened: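 A 10 mM DMSO stock was diluted to 250 μM final in McIlvaine buffer at pH 4.5 or 6.8, then shaken 24 h at ambient temperature. After filtering off precipitate, filtrate concentration was quantified by LC-UV against a fully dissolved reference in acetonitrile/water (1:1).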

[4] = target: KRAS (G12C)::SOS1 protein-protein interaction (Homo sapiens (Human), UniProt P01116, C118S/C51S/C80L/G12C); assay: KRAS::SOS1 AlphaScreen binding assay (KRAS G12C); conditions: GDP
Text: This assay can be used to examine the potency with which compounds according to the invention binding to (mutated) KRAS inhibit the protein-protein interaction between SOS1 and (mutated) KRAS e.g. KRAS G12C, KRAS G12D. […] Low IC50 values in this assay setting are indicative of strong inhibition of protein-protein interaction between SOS1 and KRAS:
These assays measure the inhibitory effect of compounds on KRAS mutant protein-protein interactions using the Alpha Screen technology by Perkin Elmer.
The following (mutant) enzyme forms of KRAS and interacting proteins are used in these assays at the given concentrations:
KRAS (G12C) 1-169, N-terminal 6His-tag for purification, cleaved off, C-terminal avi-tag, biotinylated, mutations: C51S, C80L, C118S (in house); final assay concentration 7.5 nM and SOS1 564-1049, N-terminal 229 GST-tag, TEV cleavage site (Viva Biotech Ltd); final assay concentration 5 nM;
Test compounds dissolved in DMSO are dispensed onto assay plates (Proxiplate 384 PLUS, white, PerkinElmer; 6008289) using an Access Labcyte Workstation with the Labcyte Echo 55x. For the chosen highest assay concentration of 100 μM, 150 nL of compound solution are transferred from a 10 mM DMSO compound stock solution. A series of eleven fivefold dilutions per compound are transferred to the assay plate, compound dilutions are tested in duplicates. DMSO are added as backfill to a total volume of 150 nL.
The assays run on a fully automated robotic system in a darkened room below 100 Lux. To 150 nl of compound dilution 10 μl of a mix including KRAS mutant protein, SOS1 (final assay concentrations see above) and GDP nucleotide (Sigma G7127; final assay concentration 10 μM) in assay buffer (1×PBS, 0.1% BSA, 0.05% Tween 20) are added into columns 1-24.
After 30 minutes incubation time 5 μl of Alpha Screen bead mix in assay buffer are added into columns 1-23. Bead mix consists of AlphaLISA Glutathione Acceptor Beads (PerkinElmer, Cat No AL109) and AlphaScreen Streptavidin Donor Beads (PerkinElmer Cat No 6760002) in assay buffer at a final assay concentration of 10 μg/mL each.
Plates are kept at room temperature in a darkened incubator. After an additional 60 minutes incubation time the signal is measured in a PerkinElmer Envision HTS Multilabel Reader using the AlphaScreen specs from PerkinElmer.
Each plate contains up to 16 wells of a negative control depending on the dilution procedure (platewise or serial) (DMSO instead of test compound; with KRAS mutant::SOS1 GOP mix and bead mix; column 23) and 16 wells of a positive control (DMSO instead of test compound; with KRAS mutant::SOS1 GOP mix w/o bead mix; column 24).
As internal control known inhibitors of KRAS mutant::SOS1 interaction can be measured on each compound plate.
IC50 values are calculated and analyzed with Boehringer Ingelheim's MEGALAB C50 application using a 4 parametric logistic model.
Tables of example compounds disclosed herein contain IC50 values determined using the above assays (see Table 43).

[5] = McIlvaine buffer pH 4.5, 24 h, read-out: solubility pH 4.5
[6] = McIlvaine buffer pH 6.8, 24 h, read-out: solubility pH 6.8

Sequence of KRAS (G12C)::SOS1 protein-protein interaction (P01116 other isoform, or with tags, fused parts or gaps G12C/C51S/C80L/C118S): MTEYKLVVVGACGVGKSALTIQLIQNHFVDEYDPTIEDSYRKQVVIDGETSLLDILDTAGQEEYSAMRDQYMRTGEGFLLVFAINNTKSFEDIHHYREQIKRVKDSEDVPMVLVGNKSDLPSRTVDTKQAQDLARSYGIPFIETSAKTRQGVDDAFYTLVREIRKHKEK

SMILES	fraction unbound [1]	IC50 [2]	solubility at 24 h [3, 5]	solubility at 24 h [3, 6]	IC50 [4]
CCn1c(=O)n([C@@H]2CCCOC2)c2nc(-c3onc4c3CCC[C@@]43CCCc4sc(N)c(C#N)c43)nc(OC[C@@]34CCCN3C[C@H](F)C4)c21 [I-33]	0.02	911 nM	> 163 µg/mL	8 µg/mL (≈ 11.6 µM)	22 nM
C[C@H](Oc1nc(-c2onc3c2CCC[C@@]32CCCc3sc(N)c(C#N)c32)nc2c1n(C)c(=O)n2C1CCOCC1)[C@@H]1CCCN1C [I-10]	0.24	69 nM	> 151 µg/mL	> 148 µg/mL	2 nM
C[C@H](Oc1nc(-c2onc3c2CCC[C@@]32CCCc3sc(N)c(C#N)c32)nc2c1[nH]c(=O)n2[C@@H]1CCCOC1)[C@@H]1CCCN1C [I-13]	0.18	48 nM	> 148 µg/mL	> 131 µg/mL	2 nM
CC(C)n1c(=O)n([C@@H]2CCOC2)c2nc(-c3onc4c3CCC[C@@]43CCCc4sc(N)c(C#N)c43)nc(O[C@@H](C)[C@@H]3CCCN3C)c21 [I-32]	0.07	43 nM	> 155 µg/mL	63 µg/mL (≈ 95.6 µM)	2 nM
C[C@H](Oc1nc(-c2onc3c2CCC[C@@]32CCCc3sc(N)c(C#N)c32)nc2c1n(C)c(=O)n2C1COC1)[C@@H]1CCCN1C [I-24]	0.18	75 nM	> 155 µg/mL	> 140 µg/mL	2 nM
C[C@H](Oc1nc(-c2onc3c2CCC[C@@]32CCCc3sc(N)c(C#N)c32)nc2c1n(C)c(=O)n2[C@@H]1CCOC1)[C@@H]1C[C@H](F)CN1C [I-27]	0.15	55 nM	> 153 µg/mL	9 µg/mL (≈ 13.9 µM)	2 nM
C[C@H](Oc1nc(-c2noc3c2CCC[C@@]32CCCc3sc(N)c(C#N)c32)nc2c1CN(c1ncccn1)[C@]21CCOC1)[C@@H]1CCCN1C [II-7a]	0.02	32 nM	65 µg/mL (≈ 97.6 µM)	24 µg/mL (≈ 36 µM)	2 nM
CCn1c(=O)n([C@@H]2CCCOC2)c2nc(-c3onc4c3CCC[C@@]43CCCc4sc(N)c(C#N)c43)nc(OCC34CCCN3CCC4)c21 [I-34]	0.07	273 nM	> 158 µg/mL	> 148 µg/mL	6 nM
Cc1cn([C@@H]2CCOC2)c2nc(-c3onc4c3CCC[C@@]43CCCc4sc(N)c(C#N)c43)nc(O[C@@H](C)[C@@H]3CCCN3C)c12 [I-41]	0.35	18 nM	> 137 µg/mL	32 µg/mL (≈ 52.1 µM)	4 nM
C[C@H](Oc1nc(-c2onc3c2CCC[C@@]32CCCc3sc(N)c(C#N)c32)nc2c1n(C)c(=O)n2[C@@H]1CCOC1)[C@@H]1[C@@H](F)CCN1C [I-5]	0.03	47 nM	> 150 µg/mL	2 µg/mL (≈ 3.08 µM)	1 nM
C[C@H](Oc1nc(-c2onc3c2CCC[C@@]32CCCc3sc(N)c(C#N)c32)nc2c1n(C)c(=O)n2[C@@H]1CCOC1)[C@@H]1[C@H](F)CCN1C [I-4]	0.13	77 nM	> 152 µg/mL	28 µg/mL (≈ 43.2 µM)	2 nM
C[C@H](Oc1nc(-c2onc3c2CCC[C@@]32CCCc3sc(N)c(C#N)c32)nc2c1[nH]c(=O)n2[C@@H]1CCOC1)[C@@H]1CCCN1C [I-8]	0.4	19 nM	> 147 µg/mL	> 139 µg/mL	1 nM
C[C@H](Oc1nc(-c2onc3c2CCC[C@@]32CCCc3sc(N)c(C#N)c32)nc2c1n(C)c(=O)n2[C@H]1CCC[C@@H]1O)[C@@H]1CCCN1C [I-19]	0.05	190 nM	> 152 µg/mL	> 146 µg/mL	2 nM

These reach a lower IC50 [2]. Values come first.

fraction unbound [1]	IC50 [2]	solubility at 24 h [3, 5]	solubility at 24 h [3, 6]	IC50 [4]	SMILES
0.28	3 nM	> 151 µg/mL	> 154 µg/mL	1 nM	C[C@H](Oc1nc(-c2onc3c2CCC[C@@]32CCCc3sc(N)c(C#N)c32)nc2c1n(C)c(=O)n2[C@@H]1CCOC1)[C@@H]1CCCN1C [I-20]
0.26	11 nM	> 155 µg/mL	> 154 µg/mL	2 nM	C[C@H](Oc1nc(-c2onc3c2CCC[C@@]32CCCc3sc(N)c(C#N)c32)nc2c1n(C)c(=O)n2[C@@H]1CCOC1)C12CCCN1CCC2 [I-25]
0.09	9 nM	> 141 µg/mL	> 137 µg/mL	1 nM	C[C@H](Oc1nc(-c2noc3c2CCC[C@@]32CCCc3sc(N)c(C#N)c32)nc2c1CCO[C@]21CCOC1)[C@@H]1CCCN1C [II-9b]
0.34	3 nM	> 145 µg/mL	> 142 µg/mL	2 nM	C[C@H](Oc1nc(-c2onc3c2CCC[C@@]32CCCc3sc(N)c(C#N)c32)nc2c1COC[C@]21CCOC1)[C@@H]1CCCN1C [I-54]
0.18	5 nM	> 155 µg/mL	> 142 µg/mL	1 nM	C[C@H](Oc1nc(-c2onc3c2CCC[C@@]32CCCc3sc(N)c(C#N)c32)nc2c1n(C)c(=O)n2[C@@H]1CCCOC1)[C@@H]1CCCN1C [I-12]
0.06	14 nM	135 µg/mL (≈ 197 µM)	94 µg/mL (≈ 137 µM)	2 nM	CCn1c(=O)n([C@@H]2CCCOC2)c2nc(-c3onc4c3CCC[C@@]43CCCc4sc(N)c(C#N)c43)nc(O[C@@H](C)C34CCCN3CCC4)c21 [I-36]
0.17	10 nM	> 158 µg/mL	127 µg/mL (≈ 197 µM)	2 nM	C[C@H](Oc1nc(-c2onc3c2CCC[C@@]32CCCc3sc(N)c(C#N)c32)nc2c1n(C)c(=O)n2[C@@H]1CCOC1)[C@@H]1CC[C@H](C)N1C [I-26]
